According to patent US4906666A, “Hydroxamic acids and pharmaceutical compositions containing them, and anti-allergic use thereof” (Boehringer Mannheim GmbH, priority 1986, dated 1990):

What follows are molecules tested on passively sensitized strip of pulmonary parenchyma (guinea pig) (assay: Inhibition of the antigen-induced constriction on the passively sensitized strip of pulmonary parenchyma, Superfusion). Conditions: Cavia porcellus, concentration 20 μM.
Assay type: cell-based
Description: (§1) The inhibiting action of the compounds according to the invention was expressed as a percentage reduction of the constriction amplitude of the "specimens with the test substance" in proportion to the "untreated control constrictions."

SMILES | inhibition at 20 µM [%]
CCCc1c(OCCCSCCCCCc2nn[nH]n2)ccc(C(C)=O)c1O [Example 6a, 5-{S--[3-(4-acetyl-3-hydroxy-2-propylphenoxy)-propyl]-5-thiopentyl}-(1H)-tetrazole] | 70
CCCc1c(OCCCCSCCC(=O)N(C)O)ccc(C(C)=O)c1O [Example 2c, N--hydroxy-N--methyl-S--[4-(4-acetyl-3-hydroxy-2-propyl-phenoxy)-butyl]-3-thio-propionic acid amide] | 72
CCCCCc1cccc(OCCCSCCC(=O)N(C)O)c1 [Example 2b, N--hydroxy-N--methyl-S--[3-(3-pentylphenoxy)-propyl]-3-thiopropionic acid amide] | 58
CCCCCC(O)c1cccc(OCCCSCCCC(=O)Nc2nn[nH]n2)c1 (stereo not shown) [Example 4c, N--[(1H)-tetrazol-5-yl]-S--[3-(3-{1-hydroxyhexyl}-phenoxy)-propyl]-4-thiobutyric acid amide] | 29
CCCCCC(O)c1cccc(OCC=CCSCCC(=O)N(C)O)c1 (stereo not shown) [Example 2o, N--hydroxy-N--methyl-S--[4-(3-{1-hydroxyhexyl}-phenoxy)-but-2-enyl]-3-thiopropionic acid amide] | 42
CCCCCC(O)c1cccc(OCC(O)CSCCCC(=O)NO)c1 (stereo not shown) [Example 9b, N--hydroxy-S--[3-(3-{1-hydroxy-hexyl}-phenoxy)-2-hydroxy-propyl]-4-thiobutyric acid amide] | 21
CCCCCC(O)c1cccc(OCC(O)CSCCCC(=O)N(C)O)c1 (stereo not shown) [Example 2m, N--hydroxy-N--methyl-S--[3-(3-{1-hydroxyhexyl}-phenoxy)-2-hydroxypropyl]-4-thiobutyric acid amide] | 29
CCCCCC(O)c1cccc(OCCCCSCCC(=O)Nc2nn[nH]n2)c1 (stereo not shown) [Example 4e, N--[(1H)-tetrazol-5-yl]-S--[4-(3-{1-hydroxyhexyl}-phenoxy)-butyl]-3-thiopropionic acid amide] | 73
O=C(CCSCCCOc1ccc(Cl)c(Cl)c1)Nc1nn[nH]n1 [Example 4g, N--[(1H)-tetrazol-5-yl]-S--[3-(3,4-dichlorophenoxy)-propyl]-3-thiopropionic acid amide] | 75
CCCCCC(O)c1cccc(OCCCSCCCC(=O)NO)c1 (stereo not shown) [Example 9a, N--hydroxy-S--[3-(3-{1-hydroxy-hexyl}-phenoxy)-propyl]-4-thiobutyric acid amide] | 11
CCCCCC(O)c1cccc(OCCCCSCCC(=O)N(C)O)c1 (stereo not shown) [Example 2n, N--hydroxy-N--methyl-S--[4-(3-{1-hydroxyhexyl}-phenoxy)-butyl]-3-thiopropronic acid amide] | 33
CCCc1c(OCCCCSCC(=O)N(C)O)ccc(C(C)=O)c1O [Example 2f, N--hydroxy-N--methyl-S--[4-(4-acetyl-3-hydroxy-2-propyl-phenoxy)-butyl]-thioacetamide] | 48
CCCc1c(OCCCSCCc2nn[nH]n2)ccc(C(C)=O)c1O [Example 6b, 5-{S--[3-(4-acetyl-3-hydroxy-2-propylphenoxy)-propyl]-2-thioethyl}-(1H)-tetrazole] | 55
CCCCCC(O)c1cccc(OCC(O)CSCCCC(=O)Nc2nn[nH]n2)c1 (stereo not shown) [Example 4d] | 83
CCCCCc1ccccc1OCCCSCCc1nn[nH]n1 [Example 6c, 5-{S--[3-(2-pentylphenoxy)-propyl]-2-thioethyl}-(1H)-tetrazole] | 13
CCCCCC(O)c1cccc(OCC=CCSCCC(=O)Nc2nn[nH]n2)c1 (stereo not shown) [Example 4f, N--[(1H)-tetrazol-5-yl]-S--[4-(3-{1-hydroxyhexyl}-phenoxy)-but-2-enyl]-3-thiopropionic acid amide] | 26
CCCCCC(O)c1cccc(OCCCSCCCC(=O)N(C)O)c1 (stereo not shown) [Example 2l, N--hydroxy-N--methyl-S--[3-(3-{1-hydroxyhexyl}-phenoxy)-propyl]-4-thiobutyric acid amide] | 44
CCCc1c(OCCCSCCSc2nn[nH]n2)ccc(C(C)=O)c1O [Example 7, {S-[3-(4-Acetyl-3-hydroxy-2-propylphenoxy)-propyl]-2-thioethyl}-5-mercapto-(1H)-tetrazole] | 29
CCCc1c(OCCCSCCC(=O)N(C)O)ccc(C(C)=O)c1O [Example 2i, N--hydroxy-N--methyl-S--[3-(4-acetyl-3-hydroxy-2-propyl-phenoxy)-propyl]-3-thio-propionic acid amide] | 63
CCCc1c(OCCCSCCC(=O)ONC2CCCCC2)ccc(C(C)=O)c1O [Example 2t, O--[S--(3-{4-acetyl-3-hydroxy-2-propylphenoxy}-propyl)-3-thiopropionyl]-cyclohexyl-hydroxylamine] | 15
CCCCCC(O)c1cccc(OCCCCSCCC(=O)NO)c1 (stereo not shown) [Example 9c, N--hydroxy-S--[4-(3-{1-hydroxy-hexyl}phenoxy)-butyl]-3-thiopropionic acid amide] | 27
CCCc1c(OCCCSCC(=O)N(C)O)ccc(C(C)=O)c1O [Example 1, N-Hydroxy-N-methyl-S-[3-(4-acetyl-3-hydroxy-2-propylphenoxy)-propyl]-thioacetamide] | 39

These molecules were tested on passively sensitized strip of pulmonary parenchyma (guinea pig) (assay: Inhibition of antigen-caused constriction of passively sensitized guinea pig pulmonary parenchyma strips in vitro (Organ Bath)). Conditions: Cavia porcellus, concentration 5 μg/ml, 20 min preincubation at 37° C., ovalbumin constriction, read-out: Inhibition (%) of the antigen-induced constriction, Organ Bath.
Assay type: cell-based, Pirbright-White guinea pigs
Description: Activity of the inventive compounds was shown by the following testing in vitro. […] For this study of the inventive compounds, a measurement was made of the inhibition of the antigen-caused constriction of passively sensitized strips of guinea pig lung parenchyma, as described herewith:
Pirbright-White guinea pigs were stunned by a blow to the neck and bled. The lungs were flushed largely free of blood in situ with Krebs' buffer, pH 7.4.
Then the lung was removed, cut into strips (approx. 20×4×4 mm) and the strips were passively sensitized for one hour at room temperature with a 1:50 dilution of a homologous anti-ovalbumin antiserum and then washed once with Krebs' buffer.
The antiserum had previously been produced as described by Davies et al, (Quantitative studies on anaphylaxis in guinea pigs passively sensitized with homologous antibody. Inter. Arch. Allergy 41, 648-654 (1971)) in guinea pigs of the same strain by the repeated injection of ovalbumin (2×crystallized) with the addition of complete Freund's adjuvant.
Until it was used, the antiserum was stored undiluted at -18° C.
Then the lung strips were suspended singly in 10-milliliter water baths with a bias weight of 1.2 g on an isometric measuring receptable.
Then the baths were filled with Krebs' buffer and continually gassed at 37°° C. with O2 (95%) and CO2 (5%).
The constrictions of the lung strips were recorded through an amplifier on a plotter.
After a 30-minute habituating phase, histamine control spasms were produced in order to establish the reactivity of the lung specimens, washed, then the test substance was preincubated for 20 minutes at 37° C., and then the ovalbumin constriction was produced.
as §1

SMILES | inhibition at 5 µg/mL [%]
C=CCc1c(OCCCSCCc2nn[nH]n2)ccc(C(C)=O)c1O [Example 6d, 5-{S--[3-(4-acetyl-3-hydroxy-2-allylphenoxy)-propyl]-2-thioethyl}-(1H)-tetrazole] | 24
CCCc1c(OCCCSCCC(=O)N(C)O)ccc(C(C)=O)c1O [Example 2i, N--hydroxy-N--methyl-S--[3-(4-acetyl-3-hydroxy-2-propyl-phenoxy)-propyl]-3-thio-propionic acid amide] | 36

Same assay, conditions: concentration 5 μg/ml, 20 min preincubation at 37° C., ovalbumin constriction

SMILES | Inhibition (%) of the antigen-induced constriction, Organ Bath [%]
CCCc1c(OCC#CCSCCC(=O)N(C)O)ccc(C(C)=O)c1O [Example 2g, N--hydroxy-N--methyl-S--[4-(acetyl-3-hydroxy-2-propyl-phenoxy)-but-2-ynyl]-3-thiopropionic acid amide] | 67
